Assay results reported in patent publication US6825205B2 (priority 2002, dated 2004).

What was measured:
[1] = in vivo; conditions: Sprague-Dawley, rat, ip, 10 mg/kg
[2] = rat, in vivo
[3] = biological target: μ opioid receptor (μ membrane protein) (Homo sapiens, UniProt P35372); assay: biochemical
Sequence of μ opioid receptor (μ membrane protein) (P35372 whole entry, species assumed): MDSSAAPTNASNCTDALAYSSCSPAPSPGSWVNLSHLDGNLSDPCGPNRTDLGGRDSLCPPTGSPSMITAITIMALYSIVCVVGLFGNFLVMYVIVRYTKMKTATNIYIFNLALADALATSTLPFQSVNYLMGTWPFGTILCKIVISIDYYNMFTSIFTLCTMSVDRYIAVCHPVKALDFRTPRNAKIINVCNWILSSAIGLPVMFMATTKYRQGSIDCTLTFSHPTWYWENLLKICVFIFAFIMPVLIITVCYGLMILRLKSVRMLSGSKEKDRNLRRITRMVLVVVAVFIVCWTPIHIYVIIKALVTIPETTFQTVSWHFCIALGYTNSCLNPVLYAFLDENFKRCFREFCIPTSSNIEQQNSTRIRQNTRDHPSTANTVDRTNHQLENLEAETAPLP

## C[N+]1(C)CC[C@]23c4c5ccc(O)c4O[C@H]2C(=O)CC[C@H]3[C@H]1C5 [N-methylhydromorphone, N-methylhydromorphonium iodide]
[1]
  Kp: 0.02 ± 0.01
[2]
  Penetration of the CNS / blood-brain barrier: does not penetrate the CNS
[3]
  EC50: 817 ± 83 nM
  GTP-γ-S Activity/Efficacy % DAMGO: 29 ± 1 % DAMGO
